Measured values reported in patent publication US20100003711A1, “Methods to identify therapeutic agents” (THE SCRIPPS RESEARCH INSTITUTE, priority 2005, published 2010).

What was measured:
leukocyte cell lines = assay: Cytotoxicity to leukocyte cell lines (similar procedures); type: cell-based
Protocol: Cytotoxicity assays. WI-L2 human B-lymphocyte line, HAAE-1 human abdominal aortic endothelial line, MH-S murine alveolar macrophage line, and J774A.1 murine tissue macrophage line were obtained from the ATCC. Human aortic endothelial cells (HAEC) and human vascular smooth muscle cells (VSMS) were obtained from Cambrex Bio Science. Jurkat E6-1T-lymphocytes were kindly provided by Dr. J. Kaye (The Scripps Research Institute). Cells were cultured in ATCC-recommended media with 10% fetal calf serum. Cells were incubated in a controlled atmosphere at 37° C., with 5 or 7% CO2. For lactate dehydrogenase (LDH) release assays, adherent cells were harvested either by addition of 0.05% trypsin/EDTA or by scraping. The cells obtained were seeded onto 96-well microtiter plates (25,000 cells/well) and allowed to recover for 24-48 h. Cells were washed gently and media replaced with fresh media containing 5% fetal calf serum. […] Cytotoxicity was then determined by measuring lactate dehydrogenase (LDH) release from cells in culture. […] 100% Cytotoxicity was defined as the maximum amount of LDH released by dead cells as shown by trypan blue exclusion, or the highest amount of LDH detected upon lysis of cells by 0.9% Triton X-100. The IC50 values were determined by comparison of the raw duplicate data for concentration versus cytotoxicity (%) to non-linear regression analysis (Hill plot) using Graphpad v3.0 software for Macintosh.

THP-1 monocytes = assay: Monocyte morphology changes (differentiation into macrophages); type: cell-based, human; settings: 12.5 or 25 μM, up to 7 days
Protocol: THP-1 monocytes in suspension were plated in 8-well chambered slides. […] Media containing appropriate treatment compounds was replaced after 4 days. After 4 days treatment, morphologic changes of the adherent cells were assessed by phase-contrast microscopy and photographed using an Olympus Microfire digital camera.

Row | SMILES | cytotoxicity to leukocyte cell lines (leukocyte cell lines) | THP-1 monocyte differentiation into macrophages (adherence, morphology) (THP-1 monocytes)
1 | CC(C)CCC[C@@H](C)[C@H]1CCC2[C@H](CC=O)C([C@@]3(C)CCCCC(=O)O3)CC[C@@]21C (stereo partly shown) [11a] | cytotoxic | –
2 | CC(C)CCC[C@@H](C)[C@H]1CCC2[C@H](CC(=O)O)C([C@@]3(C)CC[C@H](O)CC3=O)CC[C@@]21C (stereo partly shown) [10a] | cytotoxic | –
3 | CC(C)CCC[C@@H](C)[C@H]1CCC2C3C(CC[C@@]21C)[C@@]1(C)CCC=C[C@@]1(O)[C@@H]3C=O (stereo partly drawn) [7a, 5β-Hydroxy-B-norcholest-3-ene-6β-carboxaldehyde] | cytotoxic | –
4 | CC(C)CCC[C@@H](C)[C@H]1CCC2C3C(CC[C@@]21C)[C@@]1(C)CCC=C[C@@]1(O)[C@@H]3CO (stereo partly shown) [7c] | cytotoxic | –
5 | CC(C)CCC[C@@H](C)[C@H]1CCC2C3C(C=O)=C4C=CCC[C@]4(C)C3CC[C@@]21C (stereo partly shown) [12a, B-norcholest-3,5-diene-6-carboxaldehyde] | cytotoxic | –
6 | CC(C)CCC[C@@H](C)[C@H]1CC[C@H]2[C@@H]3C(=O)C=C4C[C@@H](O)CC[C@]4(C)[C@H]3CC[C@]12C [7-KC, 7-ketocholesterol, reference compound] | – | began to adhere after 4 days
7 | CC(C)CCC[C@@H](C)[C@H]1CCC2C(CC=O)C([C@@]3(C)CCC=CC3=O)CC[C@@]21C (stereo partly shown) [6a, 5-Oxo-5,6-secocholest-3-en-6-al] | cytotoxic | –
